Read-outs that look alike come from different tables or passages of the source.
Test system: eNOS promoter
Assay: Activation of eNOS transcription (eNOS promoter-luciferase reporter gene assay)
Type: cell-based, human
Settings: Homo sapiens, 18 h; for maximal fold induction: read-out: TIR (max); for EC50: Endothelial cell
Method: Measurement of activation of eNOS transcription Activation of eNOS transcription was measured as described in detail in Li et al. “Activation of protein kinase C alpha and/or epsilon enhances transcription of the human endothelial nitric oxide synthase gene”, Mol. Pharmacol. 1998; 53: 630-637. Briefly, a 3.5 kB long fragment 5′ of the starting codon of the eNOS gene was cloned, sequenced and cloned in firefly luciferase expression plasmids to monitor activation of the eNOS promoter by reporter gene activity. A human endothelial cell line stable transfected and expressing this promoter-reporter construct was used for compound testing. Cells were incubated for 18 h with compounds. All compounds were dissolved in sterile DMSO. A final concentration of 0.5% DMSO in complete medium was allowed. Induction of reporter gene expression in these cells was measured using a standard luciferase assay system (Promega, Cat. No E150) according to the manufacturer's instructions. Luciferase induction in cells incubated with compounds were compared to those incubated with solvent alone. The ratio of both activities (transcription induction ratio, TIR) was plotted as a function of compound concentration. […] EC50 values of transcription induction ratios as a function of compound concentration were determined graphically.

[1] = maximum transcription induction ratio (luciferase with compound / solvent alone), 18 h incubation
[2] = EC50 of transcription induction ratio, determined graphically, human endothelial cell line, 18 h incubation, read-out: EC-50

SMILES | maximal fold induction [1] | EC50 [2] | maximal fold induction | EC50
Cc1cccc(C(=O)NC2Cc3ccccc3C2)c1Cl [Compound 264, 2-CHLORO-N-INDAN-2-YL-3-METHYL-BENZAMIDE] | 2.9 | 0.58 µM | – | –
CC(C)S(=O)(=O)c1csc(C(=O)NC2Cc3ccccc3C2)c1Cl [Compound 265, 3-CHLORO-4-(PROPANE-2-SULFONYL)-THIOPHENE-2-CARBOXYLIC ACID INDAN-2-YLAMIDE] | 2.7 | 0.183 µM | – | –
Cc1ccc(F)c(C(=O)NC2Cc3ccccc3C2)c1 [Compound 266, 2-FLUORO-N-INDAN-2-YL-5-METHYL-BENZAMIDE] | 2.5 | 22 µM | – | –
CC(=O)Nc1cccc(C(=O)NC2Cc3ccccc3C2)c1Cl [Compound 267, 3-ACETYLAMINO-2-CHLORO-N-INDAN-2-YL-BENZAMIDE] | 2.5 | 2.8 µM | – | –
CCNc1ccc(C(=O)NC2Cc3ccccc3C2)cc1 [Compound 268, 4-ETHYLAMINO-N-INDAN-2-YL-BENZAMIDE] | 3 | 0.485 µM | – | –
O=C(NC1Cc2ccccc2C1)c1ccccc1Br [Compound 272, 2-BROMO-N-INDAN-2-YL-BENZAMIDE] | 2.9 | 1.6 µM | – | –
O=C(NC1Cc2ccccc2C1)c1ccccc1F [Compound 273, 2-FLUORO-N-INDAN-2-YL-BENZAMIDE] | 2.8 | 2.6 µM | – | –
O=C(NC1Cc2ccccc2C1)c1c(F)ccc(F)c1F [Compound 274, 2,3,6-TRIFLUORO-N-INDAN-2-YL-BENZAMIDE] | – | 21 µM | – | –
O=C(NC1Cc2ccccc2C1)c1ccccc1Cl [Compound 275, 2-CHLORO-N-INDAN-2-YL-BENZAMIDE] | 3 | 0.559 µM | – | –
O=C(NC1Cc2ccccc2C1)c1cccc(Cl)c1Cl [Compound 276, 2,3-DICHLORO-N-INDAN-2-YL-BENZAMIDE] | 3 | 0.157 µM | – | –
O=C(NC1Cc2ccccc2C1)c1ccc(Cl)cc1Cl [Compound 277, 2,4-DICHLORO-N-INDAN-2-YL-BENZAMIDE] | 3 | 4.1 µM | – | –
Cc1ccccc1C(=O)NC1Cc2ccccc2C1 [Compound 281, N-INDAN-2-YL-2-METHYL-BENZAMIDE] | 3 | 0.684 µM | – | –
Cc1cc(C)c(C(=O)NC2Cc3ccccc3C2)c(C)c1 [Compound 282, N-INDAN-2-YL-2,4,6-TRIMETHYL-BENZAMIDE] | 2.3 | 16 µM | – | –
O=C(NC1Cc2ccccc2C1)c1cccc(Cl)c1 [Compound 283, 3-CHLORO-N-INDAN-2-YL-BENZAMIDE] | 2.5 | 15 µM | – | –
O=C(NC1Cc2ccccc2C1)c1cccc(Oc2ccccc2)c1 [Compound 286, N-INDAN-2-YL-3-PHENOXY-BENZAMIDE] | 2.6 | 26 µM | – | –
O=C(NC1Cc2ccccc2C1)c1cccc(C(=O)c2ccccc2)c1 [Compound 287, 3-BENZOYL-N-INDAN-2-YL-BENZAMIDE] | 2.9 | 13 µM | – | –
O=C(NC1Cc2ccccc2C1)c1ccc(Br)cc1 [Compound 289, 4-BROMO-N-INDAN-2-YL-BENZAMIDE] | 2.6 | 0.142 µM | – | –
COc1ccc(C(=O)NC2Cc3ccccc3C2)cc1 [Compound 291, N-INDAN-2-YL-4-METHOXY-BENZAMIDE] | 2.8 | 0.238 µM | – | –
CSc1ccc(C(=O)NC2Cc3ccccc3C2)cc1 [Compound 292, N-INDAN-2-YL-4-METHYLSULFANYL-BENZAMIDE] | – | – | 2.9 | 0.039 µM
CCCCCc1ccc(C(=O)NC2Cc3ccccc3C2)cc1 [Compound 293, N-INDAN-2-YL-4-PENTYL-BENZAMIDE] | 1.7 | 14 µM | – | –
O=C(NC1Cc2ccccc2C1)c1cccc2ccccc12 [Compound 294, NAPHTHALENE-1-CARBOXYLIC ACID INDAN-2-YLAMIDE] | 2.2 | 14 µM | – | –
O=C(NC1Cc2ccccc2C1)c1ccc2ccccc2c1 [Compound 295, NAPHTHALENE-2-CARBOXYLIC ACID INDAN-2-YLAMIDE] | 2.4 | 0.846 µM | – | –
O=C(NC1Cc2ccccc2C1)c1ccoc1 [Compound 296, FURAN-3-CARBOXYLIC ACID INDAN-2-YLAMIDE] | 2.5 | 13 µM | – | –
